Measured values from patent US20230312587A1, “PTERIDINONE COMPOUNDS AND USES THEREOF” (Vertex Pharmaceutical Incorporated, priority 2018, published 2023).

What follows are compounds tested on β-catenin-TCF-mediated reporter transcription activity in Colo 205 cells (assay: Colo 205 reporter assay (TCF/LEF luciferase)). Settings: Colo 205 TCF/LEF luciferase reporter, five hours after addition of compound; read-out: TCF reporter Colo205 IC50.
Assay type: cell-based
Outline: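 Luciferase signal from a TCF/LEF-driven reporter, stably integrated in Colo 205 colon cancer cells, was measured 5 h after compound addition.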
`Cc1nc(NCc2cnn(Cc3cccnc3C(F)(F)F)c2)nc2c1NC(=O)[C@H](C)N2C` [Compound 183] was tested, and the IC50 was < 300 nM.

Same assay, conditions: Homo sapiens, COLO 205, 5 h, Colo 205 TCF/LEF luciferase reporter, five hours after addition of compound; read-out: TCF reporter Colo205 IC50
In the case of `C[C@H]1C(=O)Nc2cnc(NCc3cnn(Cc4ccc(C(F)(F)F)cc4)c3)nc2N1C` [Compound 147, (7S)-7,8-dimethyl-2-(((1-(4-(trifluoromethyl)benzyl)-1H-pyrazol-4-yl)methyl)amino)-7,8-dihydropteridin-6(5H)-one], the IC50 is reported as < 300 nM.
With `COc1ccc(Cn2cc(CNc3ncc4c(n3)N(C)[C@@H](C)C(=O)N4)cn2)cc1F` [Compound 148, (7S)-2-(((1-(3-fluoro-4-methoxybenzyl)-1H-pyrazol-4-yl)methyl)amino)-7,8-dimethyl-7,8-dihydropteridin-6(5H)-one] the IC50 was 300 to 1000 nM.
With `Cc1nc(NCc2cnn([C@@H]3C[C@@H]3c3ccc(F)cc3)c2)nc2c1N(C)C(=O)[C@H](C)N2C` [Compound 152, (7S)-2-(((1-((1R,2R)-2-(4-fluorophenyl)cyclopropyl)-1H-pyrazol-4-yl)methyl)amino)-4,5,7,8-tetramethyl-7,8-dihydropteridin-6(5H)-one] the IC50 was < 300 nM.
For `Cc1nc(NCc2cnn([C@H]3C[C@H]3c3ccc(F)cc3)c2)nc2c1N(C)C(=O)[C@H](C)N2C` [Compound 153, (7S)-2-(((1-((1S,2S)-2-(4-fluorophenyl)cyclopropyl)-1H-pyrazol-4-yl)methyl)amino)-4,5,7,8-tetramethyl-7,8-dihydropteridin-6(5H)-one], the IC50 was < 300 nM.
`CCc1noc(C)c1Cn1cc(CNc2nc(C)c3c(n2)N(C)[C@@H](C)C(=O)N3)cn1` [Compound 158, (7S)-2-(((1-((3-ethyl-5-methylisoxazol-4-yl)methyl)-1H-pyrazol-4-yl)methyl)amino)-4,7,8-trimethyl-7,8-dihydropteridin-6(5H)-one] was tested, and the IC50 was < 300 nM.
Work on `Cc1nc(NCc2cnn(Cc3cn(C)nc3C(F)(F)F)c2)nc2c1NC(=O)[C@H](C)N2C` [Compound 159, (7S)-4,7,8-trimethyl-2-(((1-((1-methyl-3-(trifluoromethyl)-1H-pyrazol-4-yl)methyl)-1H-pyrazol-4-yl)methyl)amino)-7,8-dihydropteridin-6(5H)-one] yielded an IC50 of 300 to 1000 nM.
`Cc1cnc(C(F)(F)F)nc1-n1cc(CNc2nc(C)c3c(n2)N(C)[C@@H](C)C(=O)N3)cn1` [Compound 161, (7S)-4,7,8-trimethyl-2-(((1-(5-methyl-2-(trifluoromethyl)pyrimidin-4-yl)-1H-pyrazol-4-yl)methyl)amino)-7,8-dihydropteridin-6(5H)-one] was tested, and the IC50 was 300 to 1000 nM.
For `Cc1nc(NCc2cnn(Cc3ncc(F)cn3)c2)nc2c1NC(=O)[C@H](C)N2C` [Compound 162, (7S)-2-(((1-((5-fluoropyrimidin-2-yl)methyl)-1H-pyrazol-4-yl)methyl)amino)-4,7,8-trimethyl-7,8-dihydropteridin-6(5H)-one], the IC50 was ≥ 5000 nM.
With `C[C@H]1C(=O)Nc2cnc(NCc3cnn(Cc4ncc(F)cn4)c3)nc2N1C` [Compound 165, (7S)-2-(((1-((5-fluoropyrimidin-2-yl)methyl)-1H-pyrazol-4-yl)methyl)amino)-7,8-dimethyl-7,8-dihydropteridin-6(5H)-one] the IC50 was ≥ 5000 nM.
With `Cc1ncc(Cn2cc(CNc3ncc4c(n3)N(C)[C@@H](C)C(=O)N4)cn2)cn1` [Compound 166, (7S)-7,8-dimethyl-2-(((1-((2-methylpyrimidin-5-yl)methyl)-1H-pyrazol-4-yl)methyl)amino)-7,8-dihydropteridin-6(5H)-one] the IC50 was ≥ 5000 nM.
In the case of `Cc1cc(OC(C)(C)C)ncc1Cn1cc(CNc2nc(C)c3c(n2)N(C)[C@@H](C)C(=O)N3)cn1` [Compound 167, (7S)-2-(((1-((6-(tert-butoxy)-4-methylpyridin-3-yl)methyl)-1H-pyrazol-4-yl)methyl)amino)-4,7,8-trimethyl-7,8-dihydropteridin-6(5H)-one], the IC50 is reported as < 300 nM.
`Cc1cc(OC(C)C)ncc1Cn1cc(CNc2nc(C)c3c(n2)N(C)[C@@H](C)C(=O)N3)cn1` [Compound 168, (7S)-2-(((1-((6-isopropoxy-4-methylpyridin-3-yl)methyl)-1H-pyrazol-4-yl)methyl)amino)-4,7,8-trimethyl-7,8-dihydropteridin-6(5H)-one] was tested, and the IC50 was < 300 nM.
In the case of `Cc1nc(NCc2ccc(OC3CCN(c4ccc(F)cc4)C3)nc2)nc2c1NC(=O)[C@H](C)N2C` (stereo partly drawn) [Compound 169, (7S)-2-(((6-((1-(4-fluorophenyl)pyrrolidin-3-yl)oxy)pyridin-3-yl)methyl)amino)-4,7,8-trimethyl-7,8-dihydropteridin-6(5H)-one], the IC50 is reported as < 300 nM.
For `Cc1nc(NCc2cnn([C@H]3CCN(c4ccc(F)cc4)C3)c2)nc2c1NC(=O)[C@H](C)N2C` [Compound 171, (7S)-2-(((1-((S)-1-(4-fluorophenyl)pyrrolidin-3-yl)-1H-pyrazol-4-yl)methyl)amino)-4,7,8-trimethyl-7,8-dihydropteridin-6(5H)-one], the IC50 was < 300 nM.
In the case of `Cc1nc(NCc2cnn([C@H](C)c3ccc(C(F)(F)F)nc3)c2)nc2c1NC(=O)[C@H](C)N2C` [Compound 175, (7S)-4,7,8-Trimethyl-2-(((1-((R)-1-(6-(trifluoromethyl)pyridin-3-yl)ethyl)-1H-pyrazol-4-yl)methyl)amino)-7,8-dihydropteridin-6(5H)-one], the IC50 is reported as < 300 nM.
`Cc1nc(NCc2cnn(Cc3ccc(C#N)nc3)c2)nc2c1NC(=O)[C@H](C)N2C` [Compound 176, (7S)-5-((4-(((4,7,8-trimethyl-6-oxo-5,6,7,8-tetrahydropteridin-2-yl)amino)methyl)-1H-pyrazol-1-yl)methyl)picolinonitrile] showed an IC50 of 300 to 1000 nM.
In the case of `Cc1nc(NCc2cnn(Cc3ccc(C(F)(F)F)nc3)c2)nc2c1N(C)C(=O)[C@H](C)N2C` [Compound 177, (7S)-4,5,7,8-tetramethyl-2-(((1-((6-(trifluoromethyl)pyridin-3-yl)methyl)-1H-pyrazol-4-yl)methyl)amino)-7,8-dihydropteridin-6(5H)-one], the IC50 is reported as < 300 nM.
In the case of `Cc1cc(Cn2cc(CNc3nc(C)c4c(n3)N(C)[C@@H](C)C(=O)N4)cn2)ccn1` [Compound 178, (7S)-4,7,8-trimethyl-2-(((1-((2-methylpyridin-4-yl)methyl)-1H-pyrazol-4-yl)methyl)amino)-7,8-dihydropteridin-6(5H)-one], the IC50 is reported as 1000 to 5000 nM.
`Cc1nc(NCc2cnn(C3CCN(c4cc(F)cc(F)c4)CC3)c2)nc2c1NC(=O)[C@H](C)N2C` [Compound 179, (7S)-2-(((1-(1-(3,5-difluorophenyl)piperidin-4-yl)-1H-pyrazol-4-yl)methyl)amino)-4,7,8-trimethyl-7,8-dihydropteridin-6(5H)-one] was tested, and the IC50 was < 300 nM.
For `Cc1nc(NCc2cnn(Cc3ccnc(F)c3)c2)nc2c1NC(=O)[C@H](C)N2C` [Compound 180, (7S)-2-(((1-((2-fluoropyridin-4-yl)methyl)-1H-pyrazol-4-yl)methyl)amino)-4,7,8-trimethyl-7,8-dihydropteridin-6(5H)-one], the IC50 was < 300 nM.
With `Cc1nc(NCc2cnn(Cc3ccc4c(c3)OCO4)c2)nc2c1NC(=O)[C@H](C)N2C` [Compound 181, (7S)-2-(((1-(benzo[d][1,3]dioxol-5-ylmethyl)-1H-pyrazol-4-yl)methyl)amino)-4,7,8-trimethyl-7,8-dihydropteridin-6(5H)-one] the IC50 was < 300 nM.
In the case of `Cc1nc(NCc2cnn(Cc3cnccc3C(F)(F)F)c2)nc2c1NC(=O)[C@H](C)N2C` [Compound 182, (7S)-4,7,8-trimethyl-2-(((1-((4-(trifluoromethyl)pyridin-3-yl)methyl)-1H-pyrazol-4-yl)methyl)amino)-7,8-dihydropteridin-6(5H)-one], the IC50 is reported as < 300 nM.
With `Cc1nc(NCc2cnn(Cc3cccc(C(F)(F)F)n3)c2)nc2c1NC(=O)[C@H](C)N2C` [Compound 184, (7S)-4,7,8-trimethyl-2-(((1-((6-(trifluoromethyl)pyridin-2-yl)methyl)-1H-pyrazol-4-yl)methyl)amino)-7,8-dihydropteridin-6(5H)-one] the IC50 was < 300 nM.
`Cc1nc(NCc2cnn(Cc3ccnc(Cl)c3)c2)nc2c1NC(=O)[C@H](C)N2C` [Compound 185, (7S)-2-(((1-((2-chloropyridin-4-yl)methyl)-1H-pyrazol-4-yl)methyl)amino)-4,7,8-trimethyl-7,8-dihydropteridin-6(5H)-one] was tested, and the IC50 was 300 to 1000 nM.
In the case of `Cc1nc(NCc2cnn(Cc3ccncc3C(F)(F)F)c2)nc2c1NC(=O)[C@H](C)N2C` [Compound 187, (7S)-4,7,8-trimethyl-2-(((1-((3-(trifluoromethyl)pyridin-4-yl)methyl)-1H-pyrazol-4-yl)methyl)amino)-7,8-dihydropteridin-6(5H)-one], the IC50 is reported as < 300 nM.
For `CCn1nc(C(F)(F)F)cc1Cn1cc(CNc2nc(C)c3c(n2)N(C)[C@@H](C)C(=O)N3)cn1` [Compound 189, (7S)-2-(((1-((1-ethyl-3-(trifluoromethyl)-1H-pyrazol-5-yl)methyl)-1H-pyrazol-4-yl)methyl)amino)-4,7,8-trimethyl-7,8-dihydropteridin-6(5H)-one], the IC50 was < 300 nM.
With `Cc1nc(NCc2cnn(Cc3cc(C(F)(F)F)n(C)n3)c2)nc2c1NC(=O)[C@H](C)N2C` [Compound 190, (7S)-4,7,8-trimethyl-2-(((1-((1-methyl-5-(trifluoromethyl)-1H-pyrazol-3-yl)methyl)-1H-pyrazol-4-yl)methyl)amino)-7,8-dihydropteridin-6(5H)-one] the IC50 was 300 to 1000 nM.
`CCn1ccnc1Cn1cc(CNc2nc(C)c3c(n2)N(C)[C@@H](C)C(=O)N3)cn1` [Compound 191, (7S)-2-(((1-((1-ethyl-1H-imidazol-2-yl)methyl)-1H-pyrazol-4-yl)methyl)amino)-4,7,8-trimethyl-7,8-dihydropteridin-6(5H)-one] gave an IC50 of 1000 to 5000 nM.
In the case of `Cc1nc(Cn2cc(CNc3nc(C)c4c(n3)N(C)[C@@H](C)C(=O)N4)cn2)c(C)o1` [Compound 193, (7S)-2-(((1-((2,5-dimethyloxazol-4-yl)methyl)-1H-pyrazol-4-yl)methyl)amino)-4,7,8-trimethyl-7,8-dihydropteridin-6(5H)-one], the IC50 is reported as 300 to 1000 nM.
In the case of `Cc1nc(NCc2cnn(Cc3ccc(Cl)nc3)c2)nc2c1NC(=O)[C@H](C)N2C` [Compound 194, (7S)-2-(((1-((6-chloropyridin-3-yl)methyl)-1H-pyrazol-4-yl)methyl)amino)-4,7,8-trimethyl-7,8-dihydropteridin-6(5H)-one], the IC50 is reported as < 300 nM.
